Experimental data from the NIST ThermoML archive (doi:10.1016/j.jct.2008.02.005).

Test: xn = mol fraction of the nth substance listed
Details: 101 kPa, Liquid; for viscosity: Capillary tube (Ostwald / Ubbelohde) method; for speed of sound: Sing-around technique in a fixed-path interferometer

CCCCCCCCO [octan-1-ol] + CCCCCC
Details	mass density, 298.15 K [kg/m3]	mass density, 303.15 K [kg/m3]	mass density, 308.15 K [kg/m3]	speed of sound, 298.15 K [m/s]	speed of sound, 303.15 K [m/s]	speed of sound, 308.15 K [m/s]	viscosity, 298.15 K [mPa·s]
x1 = 0.0651	668.557	663.926	659.735	1090.1	1068.1	1046.3	0.358
x1 = 0.1109	677.728	673.192	668.685	1100	1078.1	1056.6	0.409
x1 = 0.1511	685.618	681.095	676.641	1109.9	1089.3	1066.9	0.444
x1 = 0.2052	695.979	691.566	687.129	1123.8	1102.7	1081.6	0.53
x1 = 0.2699	708.106	703.843	699.426	1142.3	1121.4	1099.9	0.654
x1 = 0.3016	713.929	709.692	705.291	1150.4	1129.8	1109.3	0.725
x1 = 0.4013	731.693	727.596	723.487	1178.7	1158.8	1138.9	1.023
x1 = 0.5059	749.508	745.544	741.544	1209.1	1189.6	1170.3	1.477
x1 = 0.6014	765.032	761.168	757.276	1237	1218.1	1199.2	2.057
x1 = 0.7083	781.504	777.748	773.973	1268.1	1249.8	1231.4	2.954
x1 = 0.7967	794.381	790.775	787.028	1293.2	1275.3	1257.6	3.977
x1 = 0.8463	801.415	797.955	794.319	1307.2	1289.7	1272.1	4.666
x1 = 0.9154	810.757	807.483	803.632	1326.1	1308.4	1291.3	5.802
x1 = 0.9401	814.039	810.851	807.169	1332.7	1315.5	1298.5	6.264
x1 = 1	821.813	818.796	815.286	1348	1330.8	1314.1	7.508

CCCCCCCCO [octan-1-ol] + CCCCCCCC
Details	mass density, 298.15 K [kg/m3]	mass density, 303.15 K [kg/m3]	mass density, 308.15 K [kg/m3]	speed of sound, 298.15 K [m/s]	speed of sound, 303.15 K [m/s]	speed of sound, 308.15 K [m/s]	viscosity, 298.15 K [mPa·s]
x1 = 0.0548	705.04	700.957	696.852	1177.6	1156.9	1136.7	0.554
x1 = 0.1078	711.299	707.298	703.23	1183.3	1162.8	1142.7	0.621
x1 = 0.1526	716.736	712.733	708.68	1189.2	1168.9	1148.9	0.679
x1 = 0.2019	722.796	718.79	714.754	1196	1175.9	1156.1	0.762
x1 = 0.2516	728.888	724.91	720.901	1203.4	1183.5	1163.6	0.839
x1 = 0.3075	735.75	731.816	727.826	1212.2	1192.3	1172.8	0.965
x1 = 0.4055	747.852	743.986	740.044	1228	1208.9	1189.7	1.222
x1 = 0.5031	759.965	756.131	752.284	1245.5	1226.6	1207.7	1.569
x1 = 0.602	772.269	768.472	764.683	1263.9	1245.2	1227	2.091
x1 = 0.7158	786.456	782.773	779.057	1286.9	1268.7	1250.9	2.991
x1 = 0.803	797.369	793.787	790.122	1305.6	1287.7	1270.1	3.986
x1 = 0.8501	803.36	799.76	796.133	1315.7	1297.9	1280.6	4.652
x1 = 0.8959	808.907	805.579	801.983	1325.7	1308.1	1290.9	5.399
x1 = 0.9509	815.733	812.572	809.022	1337.5	1320.2	1303.2	6.441
x1 = 1	821.813	818.796	815.286	1348	1330.8	1314.1	7.508

CCCCCCCCO [octan-1-ol] + CCCCCCCCCC
Details	mass density, 298.15 K [kg/m3]	mass density, 303.15 K [kg/m3]	mass density, 308.15 K [kg/m3]	speed of sound, 298.15 K [m/s]	speed of sound, 303.15 K [m/s]	speed of sound, 308.15 K [m/s]	viscosity, 298.15 K [mPa·s]
x1 = 0.0507	730.551	726.796	722.969	1236.4	1216.3	1196.8	0.896
x1 = 0.1199	735.871	732.137	728.314	1240.1	1220.5	1201.1	0.978
x1 = 0.1532	738.514	734.755	730.923	1242.2	1222.7	1203.4	1.026
x1 = 0.2085	742.997	739.255	735.427	1246.3	1226.8	1207.5	1.121
x1 = 0.2654	747.773	744.007	740.195	1250.8	1231.7	1212.6	1.233
x1 = 0.3097	751.578	747.791	743.987	1254.8	1235.6	1216.6	1.33
x1 = 0.4009	759.689	755.863	752.086	1263.5	1244.6	1225.9	1.579
x1 = 0.5041	769.261	765.532	761.703	1274.7	1256	1237.4	1.958
x1 = 0.6069	779.261	775.493	771.782	1287.2	1268.7	1250.5	2.49
x1 = 0.7244	791.228	787.587	783.929	1303.1	1285	1267.4	3.381
x1 = 0.7505	793.993	790.368	786.721	1306.9	1288.9	1271.5	3.642
x1 = 0.804	799.684	796.157	792.558	1315.2	1297.5	1279.9	4.231
x1 = 0.8958	809.826	806.478	802.907	1330.1	1312.7	1295.6	5.521
x1 = 0.9544	816.493	813.314	809.765	1339.9	1322.9	1305.9	6.563
x1 = 1	821.813	818.796	815.286	1348	1330.8	1314.1	7.508
